{"source": "patent US11261429B2", "about": "“Enriched and expanded human cord blood stem cells for treatment of hematological disorders” (ICAHN SCHOOL OF MEDICINE AT MOUNT SINAI, priority 2013, dated 2022)", "key": {"HDAC1": {"tested_on": "HDAC1", "assay": "HDAC protein levels in CB-MNCs, Western blot densitometry", "format": "cell-based, human", "conditions": "24 hr, SCR 8 μM, C433 80 μM, VPA 1.25 mM"}, "CD34+CD90+ cells": {"tested_on": "CD34+CD90+ cells", "assay": "Cell cycle analysis by BrdU labeling", "format": "cell-based, human", "method": "The cell cycle status of the cultured CD34+CD90+ cells was assessed using the FITC-BrdU Kit (BD Pharmingen) according to the manufacturer's instructions. CB CD34+ cells cultured for 7 days under control conditions in the presence of VPA were subsequently pulsed with BrdU for 2.5 hours. […] After permeabilization, cells were treated with 30 μg of DNAse for 30 minutes at 37° C. and then stained with an FITC-conjugated anti-BrdU antibody and 7AAD. The cell cycle status of CD34+CD90+ gated cells was then documented using a FAC-SCanto II Flow Cytometer with FACSDiva software (BD Biosciences)."}, "NSG mice": {"tested_on": "NSG mice", "format": "in vivo", "method": "As described previously, NSG mice were sublethally irradiated with 300 cGy 4 hours prior to the infusion of PCs (2×10^5), and CD34+ cells re-isolated after a week of culture under control conditions or cultures containing VPA in the presence or absence of cytokines were injected into NSG mice via the tail vein (Milhem et al., “Modification of Hematopoietic Stem Cell Fate by 5aza 2′deoxycytidine and Trichostatin A,” Blood 103:4102-4110 (2004); Araki et al., “Expansion of Human Umbilical Cord Blood SCID-Repopulating Cells Using Chromatin-Modifying Agents,” Exp. Hematol. 34:140-149 (2006); Araki et al., “Chromatin-Modifying Agents Permit Human Hematopoietic Stem Cells to Undergo Multiple Celt Divisions While Retaining Their Repopulating Potential,” Blood 109:3570-3578 (2007), which are hereby incorporated by reference in their entirety). […] BM cells from each mouse were analyzed for the presence of cells expressing human CD45-PECy7 or APC, CD34-APC or FITC, CD36-APC, CD33-PECy7, CD14-FITC, CD19-PE, CD41-FITC, CD71-FITC, and glycophorin A-PE (GPA-PE). The presence of at least 0.1% human CD45+ cells in the marrow of each recipient mouse was considered indicative of donor human hematopoietic engraftment (Milhem et al., “Modification of Hematopoietic Stem Cell Fate by 5aza 2′deoxycytidine and Trichostatin A,” Blood 103:4102-4110 (2004); Araki et al., “Expansion of Human Umbilical Cord Blood SCID-Repopulating Cells Using Chromatin-Modifying Agents,” Exp. Hematol. 34:140-149 (2006); Araki et al., “Chromatin-Modifying Agents Permit Human Hematopoietic Stem Cells to Undergo Multiple Cell Divisions While Retaining Their Repopulating Potential,” Blood 109:3570-3578 (2007); Chaurasia et al., “Chromatin-Modifying Agents Promote the Ex vivo Production of Functional Human Erythroid Progenitor Cells,” Blood 117:4632-4641 (2011), which are hereby incorporated by reference in their entirety). BM cells (2×10^6) from the primary recipient NSG mice were reinfused into sublethally irradiated secondary NSG recipient mice. Mice were sacrificed 15-16 weeks after transplantation, and BM cells were stained with mAbs and analyzed by flow cytometry for evidence of human chimerism as described above."}, "CB CD34+ cells": {"tested_on": "CB CD34+ cells", "assay": "Migration assay towards SDF1 (Transwell)", "format": "cell-based, human", "conditions": "SDF1 100 ng/ml, after 16 and 48 hours, versus control", "method": "The migratory behavior of CB CD34+ cells was evaluated as previously described using 6.5 mm diameter, 5 μm pore Transwell plates (Costar) (Shivtiel et al., “CD45 Regulates Homing and Engraftment of Immature Normal and Leukemic Human Cells in Transplanted immunodeficient Mice,” Exp. Hematol. 39(12):1161-1170 (2011), which is hereby incorporated by reference in its entirety). The lower compartments of the Transwells were filled with StemLine II SF medium supplemented with 100 ng/ml of stromal-derived factor 1 (SDF1) (R&D Systems). The Transwell filters were coated with Matrigel for 30 minutes at 37° C. Re-isolated CD34+ cells (1×10^5) from the control and VPA-containing cultures were plated on the Matrigel-coated filters in 100 μl of Stemline II media. After 16 and 48 hours, cells that migrated to the lower compartment were enumerated, and the percentage of migration was calculated as follows: (number of cells migrated/total number of cells plated)×100."}, "[1]": {"conditions": "VPA alone (no cytokines), SF, 12-13 weeks"}, "[2]": {"conditions": "cells cultured with cytokines plus VPA, SF, 13-14 weeks after transplantation"}}, "note": "“And” between values parts separate entries of the source, which are not always exact repeats. Equal entries are not always repeated."}
{"smiles": "CCCC(CCC)C(=O)O", "note": "[VPA, valproic acid]", "values": [{"measurement": "HDAC1 expression relative to b-ACTIN (%)", "setting": "HDAC1", "value": "25.48 ± 7.78", "unit": "%"}, {"measurement": "percent CD34+CD90+ cells, flow cytometric analysis (FIG. 4A)", "setting": "CD34+CD90+ cells; SF culture with VPA 7 days, one of 3 representative experiments", "value": 82.9, "unit": "%"}, {"measurement": "CD34+CD90+ cells in G0/G1", "setting": "CD34+CD90+ cells; day 7, BrdU pulse 2.5 hours", "value": "23.2%±13.8%"}, {"measurement": "CD34+CD90+ cells in G2/M", "setting": "CD34+CD90+ cells; day 7, BrdU pulse 2.5 hours", "value": "18.0%±1.2%"}, {"measurement": "CD34+CD90+ cells in S phase", "setting": "CD34+CD90+ cells; day 7, BrdU pulse 2.5 hours", "value": "29.4%±7.9%"}, {"measurement": "% Human Cell Engraftment in Primary NSG Mice, CD14", "setting": "NSG mice; [1]", "value": "2.1 ± 0.2", "unit": "%"}, {"measurement": "% Human Cell Engraftment in Primary NSG Mice, CD19", "setting": "NSG mice; [1]", "value": "1.9 ± 1.1", "unit": "%"}, {"measurement": "% Human Cell Engraftment in Primary NSG Mice, CD33", "setting": "NSG mice; [1]", "value": "3.5 ± 0.6", "unit": "%"}, {"measurement": "% Human Cell Engraftment in Primary NSG Mice, CD34", "setting": "NSG mice; [1]", "value": "1.6 ± 0.4", "unit": "%"}, {"measurement": "% Human Cell Engraftment in Primary NSG Mice, CD41", "setting": "NSG mice; [1]", "value": "0.90 ± 0.6", "unit": "%"}, {"measurement": "% Human Cell Engraftment in Primary NSG Mice, CD45", "setting": "NSG mice; [1]", "value": "12.5%±5.0% and 12.5 ± 2.2%"}, {"measurement": "% Human Cell Engraftment in Primary NSG Mice, GPA", "setting": "NSG mice; [1]", "value": "9.8 ± 0.8", "unit": "%"}, {"measurement": "CD45+CD34+ cells in marrow of primary NSG mice", "setting": "NSG mice; [2]", "value": "13.0%±8.7%"}, {"measurement": "human CD45+ cell chimerism in marrow of primary NSG mice", "setting": "NSG mice; [2]", "value": "32.2%±11.3% and 32.3±10.2%"}, {"measurement": "donor-derived CD34+ cells coexpressing CD184 in marrow", "setting": "NSG mice; cells cultured with cytokines plus VPA, SF, primary NSG mice", "value": "9.9%±9.6%"}, {"measurement": "blood cancer or teratomas in primary or secondary recipients", "setting": "NSG mice; mouse, in vivo", "value": "None of the primary or secondary recipients of marrow cells receiving VPA-treated grafts developed evidence of blood cancer or developed teratomas"}, {"measurement": "migration of CD34+ cells in response to SDF1", "setting": "CB CD34+ cells", "value": "significantly greater number of CD34+ cells treated with VPA migrated in response to SDF1"}]}
